# Source: patent US20210161915A1, “GABA-A ANTAGONISTS FOR TREATING SUBSTANCE […]” (ASARINA PHARMA APS, priority 2018, published 2021)
# “Also recorded” adds a separate entry of the source. Where two headings read alike, the source gives them in different places.
# What was measured:
# [1] = biological target: T1, human alpha1,beta2,gamma2 Long GABAA receptor subtype (Homo sapiens, UniProt P14867+P47870); test: Patch-clamp (Dynaflow system) current response in HEK-293 cells transfected with alpha1,beta2,gamma2 Long GABAA receptor; assay type: cell-based
# T1 construct: expressed in transfected cells; host or cells: HEK-293
# Method: (§1) In these tests the protocol was optimized to be similar to the physiological conditions in the synaptic cleft.
# (§2) Cell culture: HEK-293 cells, permanently transfected with the human alpha1,beta,gamma and alpha4,beta,delta GABAA receptor subtypes, were seeded at a density of 3×10^4/25 cm^2 in a culture flask. The transfected cells were used for patch-clamp experiments 3 days after seeding. When using the cells for patch-clamp experiments the cells were washed twice with oxygen-bubbled extra cellular (EC) solution (see below). About 5 mL EC was then added and the cells were kept in the incubator for about 15 minutes. After 15 minutes the cells came loose from the bottom of the flask and were separated by carefully sucking a couple of times with a Pasteur pipette.
# (§3) Dynaflow™ system with Resolve chip was used for patch-clamp experiments: The electrophysiological recordings from HEK-293 cells were performed under voltage-clamp conditions using patch-clamp technique and the Dynaflow™ system (Dynaflow Pro II Platform Zeiss Axiovert 25; Cellectricon AB, Sweden) with Resolve chips as application system.
# (§4) Patch pipettes were pulled from borosilicate glass and polished to a resistance 2-5 MΩ when filled with suitable intracellular solution (IC) (pH was adjusted to 7.2) and immersed in bath solution (extracellular, EC) (pH is adjusted to 7.4).
# (§5) The recordings were made using an Axopatch 200B amplifier, a Digidata 1322A (Axon instruments, Foster city, USA). Data were analysed using the pCLAMP software sampled at 10 kHz, filtered at 2-10 kHz and analyzed with Clampfit (versions 9.0, both from Axon instruments, Foster city, USA). No higher series resistance than 20 MΩ between pipette and cell membrane was accepted. No series resistance compensation was used. The stability of series resistance was monitored repeatedly from the time course of capacitative transients during the experiments. The measured liquid-junction potential between EC and IC was subtracted in all data presented. All experiments were performed at room temperature (21-23° C.).
# (§6) All steroids were dissolved to the concentration of 6 mM in DMSO. […] End solutions were the solutions added into the wells of the chip.
# (§7) Electrophysiology: After compensating for the liquid junction potential a steady holding potential of −17 mV was used in all experiments. […] By using the holding potential of −17 mV and the intracellular solution with low chloride ion concentration the chloride ions flux into the cell when the receptors were activated.
# The Dynaflow system allowed application of solutions for as short as 40 ms up to minutes in time.
# In the experiments, THDOC and 3alpha-OH-adiol were used as the positive GABAA receptor modulating steroids.
# (§8) Different incubation times were studied to achieve the optimal time for attaining stable results and minimize the washout time.
# Study design: Studies were conducted on current response mediated by chloride ion flux through the GABAA receptor. […] The same patch-clamp technique was used as described above (Example 1) using the Dynaflow™ application system. THDOC was used as positive GABAA receptor modulating steroid as it has shorter washout time compared to allopregnanolone but works with the same mechanisms on the same GABAA receptor binding site as allopregnanolone.
# HEK-293 cells, permanently transfected with cDNA expressing the human alpha1,beta2,gamma2 Long GABAA receptor subtype. The tissue culture and the handling of the cells were as described in Example 1. In the patch-clamp experiments the transfected cells were used minimum two passages after defrosting and 3 days after seeding. The cells were seeded for maximal 25 times.
# female Wistar rats = test: Allopregnanolone-induced loss of righting reflex (LoR) test; assay type: in vivo, rat; conditions: for Animals (%) not showing LoR after allopregnanolone injection: allopregnanolone 2 mg/kg i.v.
# Method: The compound by 3beta-fluor-5alpha-pregnan-20-one (UC2016) was analyzed for antagonism of the allopregnanolone-induced loss of righting reflex (LoR) in female Wistar rats.
# Study design: Allopregnanolone was dissolved 2 mg/ml in 10% 2-hydroxy-beta-cyclodextrin (beta-CD), with the use of ultra sound. 3beta-fluor-5alpha-pregnan-20-one (UC2016) dissolved in MCT (10 mg/ml) was injected s.c. 30 and 60 minutes before i.v. 2 mg/kg allopregnanolone. UC2016, in different concentrations (1-20 mg/kg) were given s.c. 30 or 60 minutes before the acute i.v. allopregnanolone-induced LoR. To study if MCT oil alone interferes with the acute i.v. allopregnanolone-induced LoR, MCT oil was given s.c. 30 or 60 min before the allopregnanolone injection. Doses given were from 1 mg/kg to 20 mg/kg UC2016 s.c.
# Animals: Female Wistar rats (n=12) from Taconics, Denmark were used. At arrival rats weighted 250 g. For identification the rats were marked with numbers on their tail with a permanent marker. The animals were housed four in each cage for 6 weeks and thereafter two in each cage at the Umea Centre for Comparative Biology (UCCB) animal facility at Umea University, where also all experiments took place. Housing room temperature was kept at 22-23° C. Lights on and off were monitored 12/12 h light/dark; lights on at 06.00 and off at 18.00. Food and water was available ad libitum. The study protocol was approved by the Regional Ethics Committee of Umeå, Sweden.
# Handling: To avoid stress during the experimental session, animals were daily handled the week before testing. Handling included moments used during the test, i.e. holding, tail warming in water, and wrapping in op-blanket.
# Solutions: Allopregnanolone (Umecrine AB, batch L00019654), was dissolved in 10% or 30% 2-hydroxypropyl-β-cyclodextrin (HPβ-CD; Sigma, H-107) with the use of ultra sound. MCT oil and Solution of UC2016; 10 mg/ml in MCT oil, were provided by XSpray Microparticles AB (Stockholm).
# Allopregnanolone-induced loss of righting reflex (LoR) test: During testing, the rat was weighted, the tail was warmed in water (43° C.) for three minutes, and the rat was wrapped in an op-blanket and hold for injection. The test solution was injected i.v. in one of the tail veins during 30 s (optimal injection rate for allopregnanolone, 4 mg/kg/min, Zhu et al 2001), and the needle then kept in place for additional 30 s. The time point for the end of the actual injection was noted. The rat was then placed in a separate cage and LoR was tested by laying the rat on the right side. Rats with LoR stayed on side, and the time until righting was followed. Rats with no LoR could not be placed on side, as the righting reflex immediate corrected the orientation of the body so that the rat was standing on its paws. The effects of the different injections were followed by the two evaluators for approximately 10 min, and the rat was then taken back to its home cage. LoR is an early event at anesthesia, and this fact is used in the test. Allopregnanolone is a strong anesthetic substance, an agonist at the GABAA receptor, and LoR is in the test induced during the 30 seconds with the injection of the substance. At tests of possible allopregnanolone antagonists, the antagonistic effect is thus observed immediately after the injection, i.e. when the rat is placed in the test cage.
# [2] = biological target: T2, human alpha4,beta,delta GABAA receptor subtype (Homo sapiens, UniProt P28472+P48169); test: Patch-clamp (Dynaflow system) current response in HEK-293 cells transfected with alpha4,beta3,delta GABAA receptor; assay type: cell-based
# T2 construct: expressed in transfected cells; host or cells: HEK-293
# Method: as §1, §2, §3, §4, §5, §6, §7
# The Dynaflow system allowed application of solutions for as short as 40 ms up to minutes in time. […] There was no difference in response between the second and the third GABA application. Therefore, the first GABA application was always repeated twice and the second response was used in the analysis.
# Washout: GABA is quite soluble in water and easy to washout from the receptor. […] Steroids on the other hand were difficult to dissolve in water and also difficult to washout from the receptor. In the experiments, THDOC and 3alpha-OH-adiol were used as the positive GABAA receptor modulating steroids. With 2 minutes washout time, 200 nM THDOC and 3alpha-OH-adiol was completely washed out as shown by neither an accumulative nor a desensitization effect.
# as §8
# T2 sequence (P48169 36-554): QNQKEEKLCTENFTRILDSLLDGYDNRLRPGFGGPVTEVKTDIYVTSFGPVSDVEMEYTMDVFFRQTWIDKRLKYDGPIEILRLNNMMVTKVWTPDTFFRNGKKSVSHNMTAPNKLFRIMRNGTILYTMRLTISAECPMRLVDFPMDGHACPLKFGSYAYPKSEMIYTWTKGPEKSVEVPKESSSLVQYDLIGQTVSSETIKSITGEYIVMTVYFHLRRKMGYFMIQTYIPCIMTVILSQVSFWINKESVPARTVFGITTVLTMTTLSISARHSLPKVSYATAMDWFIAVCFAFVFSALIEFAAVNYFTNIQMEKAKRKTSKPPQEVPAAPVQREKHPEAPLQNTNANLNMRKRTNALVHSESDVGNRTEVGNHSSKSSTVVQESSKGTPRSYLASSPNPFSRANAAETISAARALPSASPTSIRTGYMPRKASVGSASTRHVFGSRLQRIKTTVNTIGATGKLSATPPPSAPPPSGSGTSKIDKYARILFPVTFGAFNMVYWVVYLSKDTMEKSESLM
# T2 sequence (P28472 26-473): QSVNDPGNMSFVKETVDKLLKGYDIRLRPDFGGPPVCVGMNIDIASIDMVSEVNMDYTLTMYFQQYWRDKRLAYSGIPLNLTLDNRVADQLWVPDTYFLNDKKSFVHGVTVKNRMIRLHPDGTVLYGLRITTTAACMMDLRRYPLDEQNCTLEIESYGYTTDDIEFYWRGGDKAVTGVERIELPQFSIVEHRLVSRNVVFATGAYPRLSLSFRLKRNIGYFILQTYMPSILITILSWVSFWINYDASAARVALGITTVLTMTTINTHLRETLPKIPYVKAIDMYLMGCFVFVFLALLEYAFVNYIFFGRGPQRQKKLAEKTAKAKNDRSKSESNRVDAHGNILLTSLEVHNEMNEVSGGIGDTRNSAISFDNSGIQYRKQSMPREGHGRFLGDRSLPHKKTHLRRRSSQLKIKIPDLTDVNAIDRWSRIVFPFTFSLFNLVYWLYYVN
# T2 sequence (O14764 17-452 partner limits assumed): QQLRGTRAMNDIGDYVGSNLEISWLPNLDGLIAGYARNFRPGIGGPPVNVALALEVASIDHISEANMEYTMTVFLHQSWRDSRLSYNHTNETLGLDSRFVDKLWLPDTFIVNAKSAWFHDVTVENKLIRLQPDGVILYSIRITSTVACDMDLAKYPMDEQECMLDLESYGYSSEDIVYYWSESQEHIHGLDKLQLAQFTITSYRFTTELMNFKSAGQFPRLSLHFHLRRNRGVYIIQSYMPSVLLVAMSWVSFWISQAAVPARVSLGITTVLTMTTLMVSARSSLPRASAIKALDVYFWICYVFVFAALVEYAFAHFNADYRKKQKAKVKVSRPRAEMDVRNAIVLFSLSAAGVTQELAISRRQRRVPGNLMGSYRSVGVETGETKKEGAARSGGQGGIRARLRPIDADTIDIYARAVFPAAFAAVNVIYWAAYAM
# T1 sequence (P14867 28-456): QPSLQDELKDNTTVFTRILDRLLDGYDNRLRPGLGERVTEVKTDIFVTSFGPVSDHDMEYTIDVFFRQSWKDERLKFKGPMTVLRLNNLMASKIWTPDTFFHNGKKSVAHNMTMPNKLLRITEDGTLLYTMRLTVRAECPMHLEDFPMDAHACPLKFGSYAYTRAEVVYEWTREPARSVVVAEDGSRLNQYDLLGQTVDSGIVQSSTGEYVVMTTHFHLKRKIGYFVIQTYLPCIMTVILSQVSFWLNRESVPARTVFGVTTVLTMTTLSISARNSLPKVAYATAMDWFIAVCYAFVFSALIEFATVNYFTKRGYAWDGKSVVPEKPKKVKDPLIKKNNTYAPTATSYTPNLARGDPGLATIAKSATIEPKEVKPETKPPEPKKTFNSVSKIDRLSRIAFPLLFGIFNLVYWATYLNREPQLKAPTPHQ
# T1 sequence (P47870 25-512 limits assumed): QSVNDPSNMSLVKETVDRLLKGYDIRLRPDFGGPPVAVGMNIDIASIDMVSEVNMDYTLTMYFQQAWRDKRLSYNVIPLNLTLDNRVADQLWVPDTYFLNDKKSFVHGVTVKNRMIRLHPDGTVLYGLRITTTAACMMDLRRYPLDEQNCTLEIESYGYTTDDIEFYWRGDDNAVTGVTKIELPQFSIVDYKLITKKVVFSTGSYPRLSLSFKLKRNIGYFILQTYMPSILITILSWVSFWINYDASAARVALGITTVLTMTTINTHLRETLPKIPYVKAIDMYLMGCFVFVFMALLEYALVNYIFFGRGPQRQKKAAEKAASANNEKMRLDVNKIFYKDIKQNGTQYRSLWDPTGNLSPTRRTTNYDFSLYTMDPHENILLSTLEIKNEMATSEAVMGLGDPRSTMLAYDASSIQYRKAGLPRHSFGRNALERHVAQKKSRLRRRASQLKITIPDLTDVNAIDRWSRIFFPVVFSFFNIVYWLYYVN
# T1 sequence (P18507 40-475 partner): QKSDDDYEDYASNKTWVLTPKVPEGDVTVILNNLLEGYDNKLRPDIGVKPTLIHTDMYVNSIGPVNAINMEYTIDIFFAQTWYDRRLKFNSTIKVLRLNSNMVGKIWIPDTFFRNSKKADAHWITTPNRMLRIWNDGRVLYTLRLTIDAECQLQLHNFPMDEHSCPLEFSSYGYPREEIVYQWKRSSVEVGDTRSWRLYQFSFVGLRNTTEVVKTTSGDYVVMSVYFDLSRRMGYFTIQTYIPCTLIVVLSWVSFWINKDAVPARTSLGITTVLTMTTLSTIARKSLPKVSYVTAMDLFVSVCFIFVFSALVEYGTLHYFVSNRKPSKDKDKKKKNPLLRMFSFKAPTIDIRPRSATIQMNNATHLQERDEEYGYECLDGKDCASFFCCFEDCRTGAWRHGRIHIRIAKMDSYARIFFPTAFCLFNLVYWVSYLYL
structure (smiles),measurement,setting,value
"CC(=O)[C@H]1CC[C@H]2[C@@H]3CC[C@H]4C[C@@H](F)CC[C@]4(C)[C@H]3CC[C@]12C [UC2016, 3beta-fluor-5alpha-pregnan-20-one]","[UC2016] + 30 μM GABA + 200 nM THDOC, Mean ± SEM (%)",[1]; 0.1 μM UC2016,−4.7 ± 3.5%
same,"[UC2016] + 30 μM GABA + 200 nM THDOC, Mean ± SEM (%)",[1]; 0.3 μM UC2016,−11.6 ± 5.5%
same,"[UC2016] + 30 μM GABA + 200 nM THDOC, Mean ± SEM (%)",[1]; 1 μM UC2016,−25.1 ± 3.5%
same,"Imax/Emax, effect on GABA response",[1]; 1 μM UC2016 + 30 μM GABA,−8.6 ± 1.7%
same,Effect of compound alone (baseline shift),"[1]; 1 μM UC2016, absence of GABA",no effect on baseline shift; also recorded: UC2016 had no effect in absence of GABA
same,Antagonism of allopregnanolone induction of LoR,"female Wistar rats; 1 mg/kg s.c., 60 min before allopregnanolone",clearly antagonized
same,Inhibition of LoR induction by allopregnanolone,"female Wistar rats; 5 mg/kg s.c., 30 minutes before allopregnanolone",not
same,Inhibition of LoR induction by allopregnanolone,"female Wistar rats; 5 mg/kg s.c., 60 minutes before allopregnanolone",had an inhibitory effect
same,Inhibition of LoR induction by allopregnanolone,"female Wistar rats; 10 mg/kg or higher s.c., 30 min before allopregnanolone",inhibited LoR induction
same,Animals (%) not showing LoR after allopregnanolone injection,female Wistar rats; UC2016 1 mg/kg s.c. in MCT oil,100%
same,Animals (%) not showing LoR after allopregnanolone injection,female Wistar rats; UC2016 2 mg/kg s.c. in MCT oil,80%
same,Animals (%) not showing LoR after allopregnanolone injection,female Wistar rats; UC2016 10 mg/kg s.c. in MCT oil,100%
same,Animals (%) not showing LoR after allopregnanolone injection,female Wistar rats; UC2016 20 mg/kg s.c. in MCT oil,100%
"C[C@]12CC[C@@H](O)C[C@@H]1CC[C@@H]1[C@@H]2CC[C@]2(C)C(O)CC[C@@H]12 (stereo partly drawn) [Androstanediol, 3alpha-hydroxy-5alpha-androstan-17-ol, reference compound]",EC50,[1],3.4 µM
same,Androstanediol effect without GABA,[1]; data not shown,no effect without GABA
same,EC50,[2],380 nM
same,"Baseline shift, current response in absence of GABA, Mean ± SEM pA",[2]; 3 μM Androstanediol,+8 ± 3.6 pA
same,"Baseline shift, current response in absence of GABA, Mean ± SEM pA",[2]; 10 μM Androstanediol,+13 ± 4.8 pA
"CC(=O)[C@H]1CC[C@H]2[C@@H]3CC[C@H]4C[C@H](O)CC[C@]4(C)[C@H]3CC[C@]12C [Allopregnanolone, allopregnanolone, reference compound]",Induction of LoR,female Wistar rats; allopregnanolone 2 mg/kg i.v. alone,induces LoR in all female Wistar rats
"C[C@]12CC[C@@H](O)C[C@H]1CC[C@@H]1[C@@H]2CC[C@]2(C)[C@@H](C(=O)CO)CC[C@@H]12 [THDOC, Tetrahydrodeoxycorticosterone, reference compound]",Imax/Emax,[1]; 0.03-1 μM THDOC + 30 μM GABA,+115%
same,THDOC induced tonic effect (baseline shift),[1]; without GABA,did not induce any baseline shift
same,"Emax, enhancement of GABA mediated current response",[2],297%
same,EC50,"[2]; read-out: EC50, enhancement of GABA mediated current response",47 nM
same,THDOC induced baseline shift,"[2]; without GABA, data not shown",induces a baseline shift
